Results taken from article PMC3841161, “De Novo Design and Synthesis of Ultra-Short Peptidomimetic Antibiotics Having Dual Antimicrobial and Anti-Inflammatory Activities” (PLoS ONE, 2013).
Residues, ends and D or L forms follow the SMILES beside them.

Columns and labels:
[1] = tested on: four bacterial strains (E. coli, P. aeruginosa, S. epidermidis, S. aureus); assay type: cell-based; conditions: four bacterial strains
Description: (§1) The prokaryotic selectivity of our designed HDAMPs is defined by the therapeutic index (TI) as a measure of the relative safety of the drug. It is a measure of a peptide's capability to differentiate any pathogen from a host cell. The TI value of each peptide was calculated as the ratio of the HC10 (the peptide concentration that produces 10% hemolysis toward hRBCs) to the geometric mean [GM; the geometric mean of the minimal inhibitory concentration (MIC) against four selected bacterial strains]. Larger values of TI correspond to greater prokaryotic selectivity.
(§2) The antimicrobial activity of the peptides against two Gram-positive bacterial strains and two Gram-negative bacterial strains was examined using the broth microdilution method in sterile 96-well plates. Aliquots (100 µL) of a bacterial suspension at 2×10^6 colony-forming units (CFU)/mL in 1% peptone were added to 100 µL of the peptide solution (serial two-fold dilutions in 1% peptone). After incubation for 18−20 h at 37°C, bacterial growth inhibition was determined by measuring the absorbance at 600 nm with a Microplate Autoreader EL 800 (Bio-Tek Instruments, VT). The minimal inhibitory concentration (MIC) was defined as the minimum peptide concentration inhibited bacteria growth. Two types of Gram-positive bacteria (S. epidermidis [KCTC 1917] and S. aureus [KCTC 1621]) and two types of Gram-negative bacteria (E. coli [KCTC 1682] and P. aeruginosa [KCTC 1637]) were procured from the Korean Collection for Type Cultures (KCTC) at the Korea Research Institute of Bioscience and Biotechnology (KRIBB). MRSA samples (CCARM 3089, CCARM 3090, and CCARM 3095) were obtained from the Culture Collection of Antibiotic-Resistant Microbes (CCARM) at Seoul Women's University (Seoul, Korea).

[2] = tested on: human red blood cells (hRBCs); test: Hemolytic activity; assay type: cell-based; conditions: 4% (v/v) hRBCs in PBS pH 7.4, 1 h at 37°C, absorbance at 405 nm; maximum concentration 256 µg/mL
Description: Hemolytic activity of peptides was tested against hRBCs. Fresh hRBCs were washed three times with phosphate-buffered saline (PBS; 35-mM phosphate buffer containing 150 mM of NaCl, pH 7.4) by centrifugation for 10 min at 1000×g and then re-suspended in PBS. The peptide solutions (serial two-fold dilutions in PBS) were then added to 100 µL of hRBCs in PBS to give a final volume of 200 µL and a final erythrocyte concentration of 4% (v/v). The resulting suspension was incubated with agitation for 1 h at 37°C. The samples were then centrifuged at 1000×g for 5 min, and hemoglobin release was monitored by measuring the absorbance of the supernatant at 405 nm. No hemolysis (blank) and 100% hemolysis controls consisted of hRBCs suspended in PBS and 0.1% Triton X-100, respectively. Percent hemolysis was calculated using the following equation: [drawing 1]

[3] = tested on: P. aeruginosa [KCTC 1637]; assay type: cell-based, Pseudomonas aeruginosa; conditions: broth microdilution, 1% peptone, 18−20 h at 37°C, absorbance at 600 nm
Description: as §2

S. aureus [KCTC 1621] = assay type: cell-based, Staphylococcus aureus; conditions: broth microdilution, 1% peptone, 18−20 h at 37°C, absorbance at 600 nm
Description: as §2

E. coli [KCTC 1682] = assay type: cell-based, Escherichia coli; conditions: broth microdilution, 1% peptone, 18−20 h at 37°C, absorbance at 600 nm
Description: as §2

[4] = tested on: hRBCs versus four bacterial strains; test: Prokaryotic selectivity (therapeutic index, HC10/GM); conditions: ratio of HC10 to GM; 512 µg/mL used for HC10 >256 and 128 µg/mL for MIC >64
Description: as §1

[5] = tested on: S. epidermidis [KCTC 1917]; assay type: cell-based, Staphylococcus epidermidis; conditions: broth microdilution, 1% peptone, 18−20 h at 37°C, absorbance at 600 nm
Description: as §2

Structure (SMILES): N=C(N)NCCC[C@H](NC(=O)[C@H](Cc1c[nH]c2ccccc12)NC(=O)[C@H](CCCNC(=N)N)NC(=O)[C@@H](N)Cc1c[nH]c2ccccc12)C(N)=O [(WR)2-NH2, reference compound] (H-WRWR-NH2)
- GM, geometric mean of the MIC values against four bacterial strains [1]: 26 (37) µg/mL
- % Hemolysis (HC10), peptide concentration that induces 10% hemolysis against human erythrocytes [2]: >256 (>364.5) µg/mL
- Minimal Inhibitory Concentration (MIC) P. aeruginosa [KCTC 1637] [3]: 32 (45.6) µg/mL
- Minimal Inhibitory Concentration (MIC) S. aureus [KCTC 1621] (S. aureus [KCTC 1621]): 32 (45.6) µg/mL
- Minimal Inhibitory Concentration (MIC) E. coli [KCTC 1682] (E. coli [KCTC 1682]): 32 (45.6) µg/mL
- TI (HC10/GM), therapeutic index [4]: 19.7
- Minimal Inhibitory Concentration (MIC) S. epidermidis [KCTC 1917] [5]: 8 (11.4) µg/mL
